According to PMC7290078, “Agonist bias and agonist‐dependent antagonism at corticotrophin releasing factor receptors” (Pharmacology Research & Perspectives, 2020):

Tests used:
[1] = target: T1, CRF1 receptor (hCRF1α) (Homo sapiens, UniProt P34998); test: Antagonism of agonist-mediated IP1 accumulation in Cos7 cells expressing CRF1 receptors; type: cell-based; conditions: for effect on agonist efficacy β: could not be determined, assumed; for allosteric effect α: operational model of allosterism; for antagonist potency (pKB): Gaddum method for insurmountable antagonism, mean ± SEM, n = 5
T1 construct: host or cells: Cos7 cells, transient transfection (PEI), pcDNA3.0/3.1 vector
T1 sequence (P34998 24-415): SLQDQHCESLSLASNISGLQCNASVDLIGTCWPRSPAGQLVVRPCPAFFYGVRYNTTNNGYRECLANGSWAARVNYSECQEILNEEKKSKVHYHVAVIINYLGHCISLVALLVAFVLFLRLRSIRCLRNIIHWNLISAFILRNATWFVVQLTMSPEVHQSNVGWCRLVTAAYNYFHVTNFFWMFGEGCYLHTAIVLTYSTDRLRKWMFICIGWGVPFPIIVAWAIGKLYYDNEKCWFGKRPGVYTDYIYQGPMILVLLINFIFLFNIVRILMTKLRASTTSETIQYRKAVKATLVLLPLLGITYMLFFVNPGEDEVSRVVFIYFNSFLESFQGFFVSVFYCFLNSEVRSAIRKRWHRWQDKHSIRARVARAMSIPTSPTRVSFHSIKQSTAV
Description: Plasmids containing hCRF1α and hCRF2α (GenBank accession numbers AY457172 and AY449734) were obtained from the cDNA Resource Centre (Bloomsburg University) and are referred to as CRF1 and CRF2 in this manuscript. Hemagglutinin (HA) epitope‐tagged human Calcitonin (CT) receptor (CT(a) splice variant) and myc‐tagged human RAMP1 were used as described previously. ^27 HA‐tagged human calcitonin receptor‐like receptor (CLR), N‐terminal FLAG‐tagged human RAMP3 and N‐terminal myc‐tagged human RAMP3 were a gift from Professor David Poyner (Aston University) and Professor Patrick Sexton (Monash University), respectively. N‐terminal FLAG‐tagged human RAMP2 was used as described previously. ^28 All receptors and RAMPs were cloned in pcDNA3.0 or pcDNA3.1 plasmid vectors. All plasmid inserts were sequenced at the Centre for Genomics, Proteomics and Metabolomics (University of Auckland) and the sequences were verified prior to use.
Cos7, HEK‐293S, and HEK‐293T cells were cultured as described previously. ^28 , ^29 Cos7 cells were originally supplied by the ATCC to Associate Professor Nigel Birch (University of Auckland). HEK‐293S cells were a gift from Professor David Poyner (Aston University) and HEK‐293T cells a gift from Professor John Taylor (University of Auckland). Briefly, all cell lines were cultured in Dulbecco's Modified Eagle Medium (DMEM) supplemented with 8% heat inactivated fetal bovine serum (FBS) and maintained in a humidified incubator at 37°C with 5% CO2. For transfection, cells were counted (Countess CounterTM; Life Technologies) and plated at a density of 20 000 cells per well in 96‐well plates. The cells were transiently transfected 48 hours prior to assaying using polyethylenimine (PEI), as described previously. ^28 , ^29 In all experiments a total of 0.25 μg DNA was transfected per well. In the majority of experiments 0.25 μg DNA of receptor‐containing plasmid or the pcDNA3.1 plasmid without an insert was used. For experiments involving RAMPs, 0.125 μg of receptor DNA and 0.125 μg of RAMP‐containing plasmid DNA were transfected to give a 1:1 ratio of receptor to RAMP. Where the RAMP or receptor were transfected alone, the ratio of DNA was made up with the pcDNA3.1 plasmid.
The IP‐one Gq assay kit (Cisbio) was used to quantify accumulated myo‐inositol‐1‐phosphate (IP1), a by‐product of IP3 produced after receptor‐mediated Gαq activation in Cos7 and HEK‐293S cells. Briefly, culture media was removed and replaced with DMEM containing 0.1% BSA for 30 minutes at 37°C. Cells were then incubated with media containing 50 mmol/L lithium chloride (LiCl) for an additional 0‐120 minutes (time courses) or 90 minutes at 37°C in the presence or absence of an antagonist. Agonist concentrations of 1 pmol/L to 10 µmol/L were used for agonist only assays or 10 pmol/L to 10 µmol/L concentrations for antagonist experiments. After cell stimulation, 14 µL of stimulation buffer was added to each well. Three microlitres of each detection antibody were added in turn to the plate and incubated at room temperature for 1 hour. Fifteen microliters of sample was then transferred to a 384‐well optiplate and read by an Envision plate reader (PerkinElmer). IP1 concentrations were calculated from a standard curve generated in duplicate.
In all experiments the position of peptides and antagonists (pharmacology) or transfected receptors (ELISAs) on assay plates was randomized during each independent experiment, which are independent biological replicates. In all cases, duplicate, triplicate, or quadruplicate technical replicates were conducted for each independent experiment. For transfected cell experiments, each independent experiment involved plating cells from a distinct passage, separate transient transfection and separate signaling or ELISA assays, constituting experimental n. […]

[2] = test system: CRF1 receptor; conditions: cited from earlier work

In the case of CCC(CC)Nc1cc(C)nc(Oc2c(C)cc(C)cc2C)c1C [CP‐376,395], the “potency against CRF‐mediated relative to UCN1‐mediated IP1 accumulation” value ([1]; CRF1 receptor) is reported as “approximately 8 fold”, the mode of antagonism ([1]; IP1 accumulation) is reported as “non‐competitive antagonist of IP1 accumulation” and the “effect on agonist efficacy β” value ([1]; agonist CRF, IP1, CRF1) is reported as ~ 0. For the same compound, the “allosteric effect α” value ([1]; agonist CRF, IP1, CRF1) was 0.03, the “antagonist potency (pKB)” value ([1]; agonist CRF, IP1, hCRF1α) was 7.55 ± 0.10 and the “effect on agonist efficacy β” value ([1]; agonist UCN1, IP1, CRF1) was ~ 0. For the same compound, the “allosteric effect α” value ([1]; agonist UCN1, IP1, CRF1) was 0.15, the “antagonist potency (pKB)” value ([1]; agonist UCN1, IP1, hCRF1α) was 6.67 ± 0.08 and the “effect on agonist E max” value ([1]; antagonism of CRF and UCN1‐mediated IP1, CRF1 receptor, F tests) was “a reduction in E max”. For the same compound, the selectivity [2] was “selective for the CRF1 receptor”.
